# According to patent US12115176B2, “Methods and compositions relating to ClbP inhibition” (PRESIDENT AND FELLOWS OF HARVARD COLLEGE, priority 2021, dated 2024):
# Entries after “also recorded” stand apart in the source; their conditions may differ.
# Experiments:
# [1] = biological target: purified ClbP (Escherichia coli, UniProt Q0P7K6); assay: ClbP fluorescence activity assay (in vitro); assay type: biochemical, Escherichia coli CFT073
# Excerpt: Constructs and protein purification for in vitro assays. ClbP constructs described in this publication were derived from a previously described plasmid containing the Escherichia coli CFT073 ClbP sequence (GenBank ID: NP_754344.1) inserted between the NdeI and XhoI restriction sites of pET29b (Addgene plasmid #48244).^14 All in vitro experiments used a construct bearing a C-terminal 10×His tag. This longer polyhistidine-tag was obtained by extension of the previously described 6×His tag through site-directed mutagenesis. All site-directed mutations were introduced using the Quikchange mutagenesis protocol (Stratagene) and confirmed by Sanger DNA sequencing of the whole open reading frame. Plasmids were transformed into chemically competent C41(DE3) (Lucigen) cells and proteins were isolated as previously described.^34
# ClbP fluorescence activity assay (in vitro). Assays were performed in a buffer containing 50 mM Tris, 200 mM NaCl, 0.02% w/v DDM at pH 8.0 with 25 nM purified ClbP and 25 μM fluorogenic substrate in a total volume of 20 μL.^34 Purified ClbP was defrosted on ice from stocks stored at −80° C. Stocks were diluted to 50 nM enzyme in assay buffer in the wells of a black, flat-bottom 384-well plate and the appropriate inhibitor in DMSO or DMSO was added to a final concentration of 1%. For experiments testing different inhibitor concentrations, reactions were allowed to sit for 1 hour at room temperature. For experiments testing different preincubation times, the inhibitor in DMSO was added to each reaction X minutes before initiating the reaction, where X is the time indicated on the x-axis for that sample. For experiments to test whether hydrolysis of the boronic ester was rate-limiting, the inhibitor was added to buffer with no enzyme present and allowed to sit at room temperature for the time indicated before adding the enzyme. In all cases, reactions were initiated by the addition of 10 μL, of buffer containing the 50 μM fluorogenic substrate to achieve a final concentration of 25 μM and pipetting once with a multichannel pipette to mix. Reaction progress was monitored in a plate reader (Bio-Tek Synergy HTX multimode plate reader) with an excitation filter of 360/40 nm and an emission filter of 440/20 nm. “% activity” was determined based on the measured relative fluorescence units (RFU) of each condition after 1 hour using the following formula: […]
# [2] = tested on: serine hydrolases in HEK293T cell lysates; assay: Gel-based ABPP with fluorophosphonate probe (FP); assay type: binding, human; conditions: inhibitor up to 100 μM
# Excerpt: To further explore other possible targets of inhibitors 1-4, an activity-based protein profiling (ABPP) approach was used to assay their activity against a wide variety of serine hydrolases in bacterial and mammalian proteomes. […] One limitation of this assay is that ClbP is not labeled by the FP probe, so it cannot be observed as a reference for binding. Any other proteins which evade labeling by FP would also not be detected in this assay.
# Activity-Based Protein Profiling. Bacterial or mammalian cell lysates were normalized to 1 mg/mL protein concentrations in PBS using the DC protein assay (Bio-Rad). 50 μL aliquots of lysates were incubated with compounds at the indicated concentrations (1 μL of a 50X stock in DMSO) for 30 minutes at room temperature and subsequently labeled with 5 μM of fluorophosphonate-PEG(4)-biotin probe (1 μL of a 50X stock in DMSO, synthesized as previously reported)^56 for 1 hour at room temperature. The reactions were mixed with 50 μL of 2X SDS protein loading buffer, boiled for 10 minutes at 95° C., and separated by SDS-PAGE. The labeled proteins were detected by IRdye-conjugated streptavidin (Li-Cor) and visualized using the GellOdyssey™ Imaging System (Li-Cor).^56
# [3] = tested on: HeLa cells; assay: HeLa cell survival assay; assay type: cell-based, human; conditions: all concentrations tested
# Protocol: HeLa cells were maintained as described in the General Tissue Culture Methods section. After trypsinization and counting, cells were distributed in to the wells of a 96-well plate with media containing the indicated concentration of the synthetic compound and 1% DMSO (or DMSO alone) at 5000 cells per well. After 20 hours, cell viability was determined using the CellTiter-Glo® 3D Cell Viability Assay kit (Promega) following the manufacturer's instructions and measuring luminescence on a Bio-Tek Synergy HTX™ multimode plate reader.
# [4] = tested on: FANCD2 in HeLa cell extracts; assay: Western blot for FANCD2; assay type: cell-based, human; conditions: 1 μM 3
# Protocol: Western Blot for FANCD2. Infections were carried out as described above. For conditions which involved other small molecules, no bacteria were introduced during the infection and cells were treated with either 0.5 μg/mL mitomycin C (MMC) or 7.5 μg/mL cisplatin under the same conditions for 4 hours. 20 hours after infection, cells were lysed directly in the culture wells (Lysis buffer: 50 mM Tris, (pH 8.0), 150 mM NaCl, 1% Triton X-100, 0.5% Sodium deoxycholate, 0.05% sodium dodecylsulfate, 1 mM MgSO4, SIGMAFAST Protease inhibitor mix, 100 U/mL benzonase (Millipore-Sigma). Lysates were then spun down at 16,000×g to remove particulates and the supernatant was mixed 1:1 with 2X Laemmli sample buffer (Bio-Rad) containing 50 mg/mL dithiothreitol (DTT). Samples were then heated at 70° C. for 10 minutes and run on an SDS-PAGE gel (3-8% Tris-Acetate Novex gel, Invitrogen) at 150 V for 1.5 hours at 4° C. Bands were then transferred to PVDF membranes (100 V, 1 hour at 4° C.) and blocked with 10% skim milk powder in TBST buffer at 4° C. overnight. Blots were probed sequentially with either mouse anti-actin (1.5 μg/mL) or mouse anti-FANCD2 (0.1 μg/mL) primary antibodies (Thermo Fisher Scientific, Catalog #MA511869 and MA123347), followed by a peroxidase-conjugated goat anti-mouse secondary antibody (Jackson ImmunoResearch product 115-035-003, 0.08 μg/mL). Each probing step was conducted for 90 minutes at room temperature n 2.5% skim milk powder in TBST. Before imaging, blots were washed 3×15 minutes each in TBST […]. Blots were imaged using the SuperSignal™ West Pico PLUS Chemiluminescent Substrate (Thermo Fisher Scientific) kit following the manufacturer's instructions and imaged using an Azure Biosystems c300 imager.
# [5] = tested on: purified plasmid DNA incubated with pks+ E. coli; assay: Plasmid DNA crosslinking, denaturing gel electrophoresis
# Protocol: In addition to blocking the metabolic indicators of colibactin biosynthesis, it was also assessed whether 3 could inhibit the genotoxic effects of colibactin on human cells at physiologically accessible concentrations. A previously described infection assay with HeLa cells and pks+E. coli which was modified to include a 1-hour preincubation of the inhibitor with the E. coli as well as inclusion of the inhibitor in the infection medium was used. […] Treatment with 3 was able to completely block this effect at concentrations as low as 5 nM (FIG. 4). It was also confirmed that 3 is not cytotoxic to human cell lines at concentrations up to 10 μM. […] In order to directly assess the impacts of 3 on colibactin's DNA crosslinking activity, purified plasmid DNA was incubated with pks^+ E. coli, then subjected to gel electrophoresis under denaturing conditions.
compound,measurement,setting,value
CC1(C)OB([C@@H](CC(N)=O)NC(=O)CCCc2ccccc2)OC1(C)C [Compound 3],IC50,[1],28 nM
same,"speed of reaching maximum potency, in words","[1]; slow-binding inhibition assay, 100 nM",achieved their maximum potency faster than compound 4
same,change in protein labeling by FP probe,[2],does not identify any significant targets
same,concentration without cytotoxicity to human cell lines,[3],> 10 µM
same,FANCD2 ubiquitination in colibactin-exposed cells,[4]; HeLa cells exposed to pks+ E. coli (NC101),prevented this response; also recorded: prevents
same,effect of 3 on FANCD2-Ub response to MMC or cisplatin,[4]; HeLa cells,had no impact on the response to MMC or cisplatin
same,DNA crosslinking activity,[5],can suppress DNA crosslinking activity
